From ChEMBL document CHEMBL3885881, “DrugMatrix”

Species on record: Rattus norvegicus
Assay: DrugMatrix - Regimen: Daily Repeat
Format: toxicity, organism-based, Sprague-Dawley
Set-up: regimen Daily Repeat, gender Male, age 6-8 weeks
Conditions: in vivo, po, route oral GAVAGE, vehicle .5 % CMC; for BASOPHIL / EOSINOPHIL / ERYTHROCYTE COUNT / HEMATOCRIT / HEMOGLOBIN / LEUKOCYTE COUNT / LYMPHOCYTE / MEAN CORPUSCULAR HEMOGLOBIN / MEAN CORPUSCULAR HEMOGLOBIN CONCENTRATION / MEAN CORPUSCULAR VOLUME / MONOCYTE / NEUTROPHIL / PLATELET COUNT: tissue Blood
[1] = 0 mg/kg, […], tissue Plasma, dose level Control, time 28 day
[2] = 30 mg/kg, 72 h, dose level M1, time 3 day
[3] = 30 mg/kg, 72 h, tissue Plasma, dose level M1, time 3 day
[4] = 30 mg/kg, 120 h, dose level M1, time 5 day
[5] = 30 mg/kg, 120 h, tissue Plasma, dose level M1, time 5 day
[6] = 300 mg/kg, 72 h, dose level High, time 3 day
[7] = 300 mg/kg, 72 h, tissue Plasma, dose level High, time 3 day
[8] = 300 mg/kg, 120 h, dose level High, time 5 day
[9] = 300 mg/kg, 120 h, tissue Plasma, dose level High, time 5 day

For `Cc1ccc2cc3c(ccc4ccccc43)c3c2c1CC3` [3-METHYLCHOLANTHRENE], the CHOLESTEROL [1] was 59.6 mg/dL, the “CREATINE PHOSPHOKINASE” value [1] was 121.8 u/L and the CREATININE [1] was 0.6 mg/dL. The GLUCOSE [1] was 143 mg/dL, the “LACTATE DEHYDROGENASE” value [1] was 87.8 u/L and the LIPASE [1] was 17.4 u/L. It also gave a PHOSPHORUS [1] of 8.68 mg/dL, a POTASSIUM [1] of 6.02 MEQ/L and an SODIUM [1] of 152.8 MEQ/L. The “TOTAL BILIRUBIN” value [1] was 0.26 mg/dL, the “TOTAL PROTEIN” value [1] was 6.92 G/DL and the “URIC ACID” value [1] was 0.52 mg/dL. The BASOPHIL [2] was 0.4%, the EOSINOPHIL [2] was 0.4% and the “ERYTHROCYTE COUNT” value [2] was 6.58 x10E6/uL. For the same compound, the HEMATOCRIT [2] was 41.43%, the HEMOGLOBIN [2] was 13.13 G/DL and the “LEUKOCYTE COUNT” value [2] was 12.08 x10E3/uL. The LYMPHOCYTE [2] was 83.17%, the “MEAN CORPUSCULAR HEMOGLOBIN” value [2] was 20 pg and the “MEAN CORPUSCULAR HEMOGLOBIN CONCENTRATION” value [2] was 31.7 G/DL. For the same compound, the “MEAN CORPUSCULAR VOLUME” value [2] was 63.07 fL, the MONOCYTE [2] was 2.4% and the NEUTROPHIL [2] was 12.5%. For the same compound, the “PLATELET COUNT” value [2] was 1282.33 x10E3/uL, the “ALANINE AMINOTRANSFERASE” value [3] was 39.67 u/L and the ALBUMIN [3] was 3.57 G/DL. The “ALKALINE PHOSPHATASE” value [3] was 304 u/L, the “ASPARTATE AMINOTRANSFERASE” value [3] was 67.67 u/L and the “BLOOD UREA NITROGEN” value [3] was 12.67 mg/dL. The CHLORIDE [3] was 104 MEQ/L, the CHOLESTEROL [3] was 97.67 mg/dL and the “CREATINE PHOSPHOKINASE” value [3] was 181.67 u/L. For the same compound, the CREATININE [3] was 0.37 mg/dL, the GLUCOSE [3] was 174.33 mg/dL and the PHOSPHORUS [3] was 12.23 mg/dL. The POTASSIUM [3] was 6.87 MEQ/L, the SODIUM [3] was 147.67 MEQ/L and the “TOTAL BILIRUBIN” value [3] was 0.43 mg/dL. For the same compound, the “TOTAL PROTEIN” value [3] was 6.03 G/DL, the BASOPHIL [4] was 0.43% and the EOSINOPHIL [4] was 0.27%. The “ERYTHROCYTE COUNT” value [4] was 6.57 x10E6/uL, the HEMATOCRIT [4] was 43.27% and the HEMOGLOBIN [4] was 13.43 G/DL. For the same compound, the “LEUKOCYTE COUNT” value [4] was 10.87 x10E3/uL, the LYMPHOCYTE [4] was 82.07% and the “MEAN CORPUSCULAR HEMOGLOBIN” value [4] was 20.43 pg. The “MEAN CORPUSCULAR HEMOGLOBIN CONCENTRATION” value [4] was 31.07 G/DL, the “MEAN CORPUSCULAR VOLUME” value [4] was 65.87 fL and the MONOCYTE [4] was 2.43%. The NEUTROPHIL [4] was 13.57%, the “PLATELET COUNT” value [4] was 1575.33 x10E3/uL and the “ALANINE AMINOTRANSFERASE” value [5] was 38.33 u/L. The ALBUMIN [5] was 3.47 G/DL, the “ALKALINE PHOSPHATASE” value [5] was 335.67 u/L and the “ASPARTATE AMINOTRANSFERASE” value [5] was 70.67 u/L. The “BLOOD UREA NITROGEN” value [5] was 15 mg/dL, the CHLORIDE [5] was 103.33 MEQ/L and the CHOLESTEROL [5] was 82 mg/dL. For the same compound, the “CREATINE PHOSPHOKINASE” value [5] was 189.33 u/L, the CREATININE [5] was 0.4 mg/dL and the GLUCOSE [5] was 182 mg/dL. For the same compound, the PHOSPHORUS [5] was 12.6 mg/dL, the POTASSIUM [5] was 6.87 MEQ/L and the SODIUM [5] was 148.33 MEQ/L. For the same compound, the “TOTAL BILIRUBIN” value [5] was 0.4 mg/dL, the “TOTAL PROTEIN” value [5] was 5.77 G/DL and the BASOPHIL [6] was 0.4%. The EOSINOPHIL [6] was 0.37%, the “ERYTHROCYTE COUNT” value [6] was 6.99 x10E6/uL and the HEMATOCRIT [6] was 43.53%. For the same compound, the HEMOGLOBIN [6] was 13.6 G/DL, the “LEUKOCYTE COUNT” value [6] was 10.06 x10E3/uL and the LYMPHOCYTE [6] was 78.97%. The “MEAN CORPUSCULAR HEMOGLOBIN” value [6] was 19.47 pg, the “MEAN CORPUSCULAR HEMOGLOBIN CONCENTRATION” value [6] was 31.3 G/DL and the “MEAN CORPUSCULAR VOLUME” value [6] was 62.23 fL. The MONOCYTE [6] was 2.83%, the NEUTROPHIL [6] was 15.97% and the “PLATELET COUNT” value [6] was 1201 x10E3/uL. The “ALANINE AMINOTRANSFERASE” value [7] was 33.33 u/L, the ALBUMIN [7] was 3.53 G/DL and the “ALKALINE PHOSPHATASE” value [7] was 316 u/L. The “ASPARTATE AMINOTRANSFERASE” value [7] was 60 u/L, the “BLOOD UREA NITROGEN” value [7] was 12.67 mg/dL and the CHLORIDE [7] was 103.67 MEQ/L. For the same compound, the CHOLESTEROL [7] was 97.67 mg/dL, the “CREATINE PHOSPHOKINASE” value [7] was 153 u/L and the CREATININE [7] was 0.43 mg/dL. The GLUCOSE [7] was 185.67 mg/dL, the PHOSPHORUS [7] was 12.47 mg/dL and the POTASSIUM [7] was 6.9 MEQ/L. For the same compound, the SODIUM [7] was 147 MEQ/L, the “TOTAL BILIRUBIN” value [7] was 0.5 mg/dL and the “TOTAL PROTEIN” value [7] was 5.83 G/DL. For the same compound, the BASOPHIL [8] was 0.55%, the EOSINOPHIL [8] was 0.15% and the “ERYTHROCYTE COUNT” value [8] was 6.96 x10E6/uL. The HEMATOCRIT [8] was 44.15%, the HEMOGLOBIN [8] was 14.05 G/DL and the “LEUKOCYTE COUNT” value [8] was 9.75 x10E3/uL. The LYMPHOCYTE [8] was 87.2%, the “MEAN CORPUSCULAR HEMOGLOBIN” value [8] was 20.2 pg and the “MEAN CORPUSCULAR HEMOGLOBIN CONCENTRATION” value [8] was 31.8 G/DL. The “MEAN CORPUSCULAR VOLUME” value [8] was 63.45 fL, the MONOCYTE [8] was 2.05% and the NEUTROPHIL [8] was 8.8%. The “PLATELET COUNT” value [8] was 1398 x10E3/uL, the “ALANINE AMINOTRANSFERASE” value [9] was 37 u/L and the ALBUMIN [9] was 3.63 G/DL. For the same compound, the “ALKALINE PHOSPHATASE” value [9] was 280 u/L, the “ASPARTATE AMINOTRANSFERASE” value [9] was 66.33 u/L and the “BLOOD UREA NITROGEN” value [9] was 14.67 mg/dL. The CHLORIDE [9] was 103 MEQ/L, the CHOLESTEROL [9] was 112 mg/dL and the “CREATINE PHOSPHOKINASE” value [9] was 163.67 u/L. For the same compound, the CREATININE [9] was 0.4 mg/dL, the GLUCOSE [9] was 178.33 mg/dL and the PHOSPHORUS [9] was 13.37 mg/dL. The POTASSIUM [9] was 7.9 MEQ/L, the SODIUM [9] was 147.33 MEQ/L and the “TOTAL BILIRUBIN” value [9] was 0.4 mg/dL. The “TOTAL PROTEIN” value [9] was 6.13 G/DL.
